PubChem BioAssay AID1259407 (Chemical Carcinogenesis Research Information System (CCRIS), 2018)
Calls of active or inactive are those of the source. How the calls were made is not given here.

System: CCRIS mutagenicity, Ames/micronucleus/aberration tests
Assay: CCRIS mutagenicity studies
[1] = Test System: AMES SALMONELLA TYPHIMURIUM, Strain/Indicator: TA100, Metabolic Activation: NONE, Method: PREINCUBATION
[2] = Test System: AMES SALMONELLA TYPHIMURIUM, Strain/Indicator: TA100, Metabolic Activation: NONE, Method: STANDARD PLATE
[3] = Test System: AMES SALMONELLA TYPHIMURIUM, Strain/Indicator: TA1535, Metabolic Activation: NONE, Method: PREINCUBATION
[4] = Test System: AMES SALMONELLA TYPHIMURIUM, Strain/Indicator: TA1535, Metabolic Activation: NONE, Method: STANDARD PLATE
[5] = Test System: AMES SALMONELLA TYPHIMURIUM, Strain/Indicator: TA98, Metabolic Activation: NONE, Method: PREINCUBATION
[6] = Test System: AMES SALMONELLA TYPHIMURIUM, Strain/Indicator: TA98, Metabolic Activation: RAT, LIVER, S-9, PHENOBARBITAL AND 5,6-BENZOFLAVONE, Method: PREINCUBATION
[7] = Test System: AMES SALMONELLA TYPHIMURIUM, Strain/Indicator: TA100, Metabolic Activation: RAT, LIVER, S-9, PHENOBARBITAL AND 5,6-BENZOFLAVONE, Method: PREINCUBATION
[8] = Test System: AMES SALMONELLA TYPHIMURIUM, Strain/Indicator: TA2637, Metabolic Activation: RAT, LIVER, S-9, PHENOBARBITAL AND 5,6-BENZOFLAVONE, Method: PREINCUBATION
[9] = Test System: AMES SALMONELLA TYPHIMURIUM, Strain/Indicator: TA100, Metabolic Activation: RAT, LIVER, S-9, AROCLOR 1254, Method: PREINCUBATION
[10] = Test System: MOUSE LYMPHOMA, Strain/Indicator: L5178Y (TK+/TK-), Metabolic Activation: NONE, Method: SUSPENSION/PLATE

Measured: mutagenic call

COc1ccc(CC2CO2)cc1 (stereo not given)
active: [1] active; positive | [2] active; positive | [3] active; positive | [4] active; positive

COC1=C(OC)C(=O)C(C)=CC1=O
inactive: [5] inactive; negative | [6] inactive; negative | [1] inactive; negative | [7] inactive; negative | Test System: AMES SALMONELLA TYPHIMURIUM, Strain/Indicator: TA102, Metabolic Activation: NONE, Method: PREINCUBATION inactive; negative | Test System: AMES SALMONELLA TYPHIMURIUM, Strain/Indicator: TA102, Metabolic Activation: RAT, LIVER, S-9, PHENOBARBITAL AND 5,6-BENZOFLAVONE, Method: PREINCUBATION inactive; negative | Test System: AMES SALMONELLA TYPHIMURIUM, Strain/Indicator: TA104, Metabolic Activation: NONE, Method: PREINCUBATION inactive; negative | Test System: AMES SALMONELLA TYPHIMURIUM, Strain/Indicator: TA104, Metabolic Activation: RAT, LIVER, S-9, PHENOBARBITAL AND 5,6-BENZOFLAVONE, Method: PREINCUBATION inactive; negative | Test System: AMES SALMONELLA TYPHIMURIUM, Strain/Indicator: TA2637, Metabolic Activation: NONE, Method: PREINCUBATION inactive; negative | [8] inactive; negative

COc1cc(O)c2c(=O)c3c(O)ccc(O)c3oc2c1
active: Test System: AMES SALMONELLA TYPHIMURIUM, Strain/Indicator: TA97, Metabolic Activation: NONE, Method: PREINCUBATION active; positive | Test System: AMES SALMONELLA TYPHIMURIUM, Strain/Indicator: TA97, Metabolic Activation: RAT, LIVER, S-9, PHENOBARBITAL AND 5,6-BENZOFLAVONE, Method: PREINCUBATION active; positive | [8] active; positive
inactive: [6] inactive; negative | [7] inactive; negative

Nc1ccc2c3c(cccc13)-c1ccccc1-2
active: Test System: AMES SALMONELLA TYPHIMURIUM, Strain/Indicator: TA98, Metabolic Activation: RAT, LIVER, S-9, AROCLOR 1254 (2 OR 4%), Method: STANDARD PLATE active; positive | Test System: AMES SALMONELLA TYPHIMURIUM, Strain/Indicator: TA100, Metabolic Activation: RAT, LIVER, S-9, AROCLOR 1254 (4%), Method: STANDARD PLATE active; positive | Test System: AMES SALMONELLA TYPHIMURIUM, Strain/Indicator: TA1537, Metabolic Activation: RAT, LIVER, S-9, AROCLOR 1254 (4%), Method: STANDARD PLATE active; positive
inactive: Test System: AMES SALMONELLA TYPHIMURIUM, Strain/Indicator: TA1535, Metabolic Activation: RAT, LIVER, S-9, AROCLOR 1254 (4%), Method: STANDARD PLATE inactive; negative

Cc1cc2c3c(ccc2c2ccccc12)[C@@H](O)[C@H](O)[C@@H]1O[C@H]31
inactive: [1] inactive; negative

CCCCCCOCCOCCO
active: Test System: CHINESE HAMSTER OVARY CELLS, Strain/Indicator: CHO-K1-BH4 CELLS (HPRT)/6-THIOGUANINE, Metabolic Activation: RAT LIVER S-9, AROCLOR 1254, Method: PREINCUBATION active; positive
inactive: Test System: AMES SALMONELLA TYPHIMURIUM, Strain/Indicator: TA98, Metabolic Activation: NONE, Method: STANDARD PLATE inactive; negative | Test System: AMES SALMONELLA TYPHIMURIUM, Strain/Indicator: TA98, Metabolic Activation: RAT LIVER S-9, AROCLOR 1254, Method: STANDARD PLATE inactive; negative | [2] inactive; negative | Test System: AMES SALMONELLA TYPHIMURIUM, Strain/Indicator: TA100, Metabolic Activation: RAT LIVER S-9, AROCLOR 1254, Method: STANDARD PLATE inactive; negative | [4] inactive; negative | Test System: AMES SALMONELLA TYPHIMURIUM, Strain/Indicator: TA1535, Metabolic Activation: RAT LIVER S-9, AROCLOR 1254, Method: STANDARD PLATE inactive; negative | Test System: AMES SALMONELLA TYPHIMURIUM, Strain/Indicator: TA1537, Metabolic Activation: NONE, Method: STANDARD PLATE inactive; negative | Test System: AMES SALMONELLA TYPHIMURIUM, Strain/Indicator: TA1537, Metabolic Activation: RAT LIVER S-9, AROCLOR 1254, Method: STANDARD PLATE inactive; negative | Test System: AMES SALMONELLA TYPHIMURIUM, Strain/Indicator: TA1538, Metabolic Activation: NONE, Method: STANDARD PLATE inactive; negative | Test System: AMES SALMONELLA TYPHIMURIUM, Strain/Indicator: TA1538, Metabolic Activation: RAT LIVER S-9, AROCLOR 1254, Method: STANDARD PLATE inactive; negative

O=C(OCc1cccc([N+](=O)[O-])c1)c1ccccc1
inactive: [5] inactive; negative | [1] inactive; negative | [9] inactive; negative

N=C1C=CC2=C(S(=O)(=O)O)C=CC(=O)C2=C1NNc1ccc(-c2ccc(NNC3=C4C(=O)C=CC(S(=O)(=O)O)=C4C=CC3=N)cc2)cc1
active: Test System: AMES SALMONELLA TYPHIMURIUM, Strain/Indicator: TA98, Metabolic Activation: HAMSTER, LIVER, S-9, Method: PREINCUBATION (PRIVAL METHOD) active; positive

Cc1cc(-c2cc3c(cc2F)n2c(=O)n(O)c(=O)cc2n3C2CC2)cc(C)n1
active: Test System: AMES SALMONELLA TYPHIMURIUM, Strain/Indicator: TA102, Metabolic Activation: NONE, Method: STANDARD PLATE active; positive

C1CC2OC2CC1C1CO1 (stereo not given)
active: Test System: AMES SALMONELLA TYPHIMURIUM, Strain/Indicator: TA98, Metabolic Activation: HAMSTER, LIVER, S-9, AROCLOR 1254, Method: PREINCUBATION active; positive | [5] active; positive | Test System: AMES SALMONELLA TYPHIMURIUM, Strain/Indicator: TA98, Metabolic Activation: RAT, LIVER, S-9, AROCLOR 1254, Method: PREINCUBATION active; positive | Test System: AMES SALMONELLA TYPHIMURIUM, Strain/Indicator: TA100, Metabolic Activation: HAMSTER, LIVER, S-9, AROCLOR 1254, Method: PREINCUBATION active; positive | [1] active; positive | [9] active; positive | Test System: AMES SALMONELLA TYPHIMURIUM, Strain/Indicator: TA1535, Metabolic Activation: HAMSTER, LIVER, S-9, AROCLOR 1254, Method: PREINCUBATION active; positive | [3] active; positive | Test System: AMES SALMONELLA TYPHIMURIUM, Strain/Indicator: TA1535, Metabolic Activation: RAT, LIVER, S-9, AROCLOR 1254, Method: PREINCUBATION active; positive | Test System: AMES SALMONELLA TYPHIMURIUM, Strain/Indicator: TA1537, Metabolic Activation: HAMSTER, LIVER, S-9, AROCLOR 1254, Method: PREINCUBATION active; positive | Test System: AMES SALMONELLA TYPHIMURIUM, Strain/Indicator: TA1537, Metabolic Activation: RAT, LIVER, S-9, AROCLOR 1254, Method: PREINCUBATION active; positive | [10] active; positive

COS(=O)(=O)C(F)(F)F
active: Test System: AMES SALMONELLA TYPHIMURIUM, Strain/Indicator: TA100, Metabolic Activation: HAMSTER, LIVER, S-9, AROCLOR 1254 (10%), Method: PREINCUBATION active; positive | [10] active; positive. reevaluation of results: positive | Test System: MOUSE LYMPHOMA, Strain/Indicator: L5178Y (TK+/TK-), Metabolic Activation: RAT, LIVER, S-9, AROCLOR 1254, Method: SUSPENSION/PLATE active; positive. reevaluation of results: positive

O=[N+]([O-])c1cccc(S(=O)(=O)OC[C@H]2CO2)c1
active: [2] active; positive

c1ccc2cnccc2c1
inactive: [5] inactive; negative | Test System: AMES SALMONELLA TYPHIMURIUM, Strain/Indicator: TA98, Metabolic Activation: RAT, LIVER, S-9, Method: PREINCUBATION inactive; negative | [1] inactive; negative | Test System: AMES SALMONELLA TYPHIMURIUM, Strain/Indicator: TA100, Metabolic Activation: RAT, LIVER, S-9, Method: PREINCUBATION inactive; negative
